Results as given in patent publication US20010034365A1, “Halogen substituted carbamate compounds from 2-phenyl-1,2-ethanediol” (priority 1996, published 2001).

The compounds below were run on mice (CF-1 strain) (assay: Maximal ElectroShock (MES) test for anticonvulsants). Conditions: dosed orally, Hour 1, elimination of hindlimb tonic extension.
Assay type: in vivo
Protocol: The therapeutic use of the compounds claimed in the present invention as anticonvulsants has been proven by the “Maximal ElectroShock (MES)” test, which is a well-established pharmacological screening method for anticonvulsants against partial seizures, and the results are presented in Table 1. The procedure employed in the MES test for anticonvulsants follows. The compound dosing, solutions were prepared in saline, and the subject, namely, mice (CF-1 strain), were dosed orally. After the designated number of hours, maximal electroshock was induced in mice via corneal electrodes using IITC Life Science model 11A Shocker at 50 mA-60 Hz for […]. Upon inducing, maximal electroshock, the elimination of hindlimb tonic extension was considered as providing evidence of the protection by an anticonvulsant. Median efficacy dose (ED50) levels were determined using three different dose levels with at least 6 mice in each group.

Compound | ED50 [mg/kg]
NC(=O)OCC(O)c1ccccc1Cl (stereo not drawn) [Entry 1, (DL)-(2-(2-chlorophenyl)-2-hydroxyethyl)oxocarboxamide] | 33.7
NC(=O)OCC(OC(N)=O)c1ccccc1Cl (stereo not drawn) [Entry 5, (DL)-(2-(2-Chlorophenyl)-2-carbamoyloxyethyl)oxocarboxamide] | 25
NC(=O)OCC(OC(N)=O)c1ccc(Cl)cc1 (stereo not drawn) [Entry 8, (DL)-(2-(4-Chlorophenyl)-2-carbamoyloxyethyl)oxocarboxamide] | 29.1
NC(=O)OCC(OC(N)=O)c1c(Cl)cccc1Cl (stereo not drawn) [Entry 11, (DL)-(2-(2,6-dichlorophenyl)-2-carbamoyloxyethyl)-oxocarboxamide] | 7.4
(R)-(2-(2,6-Dichlorophenyl)-carbamoyloxyethyl)oxocarboxamide [Entry 12] | 10.7
(R)-(2-(2-Chlorophenyl)-2-carbamoyloxyethyl)oxocarboxamide [Entry 6] | 16.0
(R)-(2-(2-Chlorophenyl)-2-hydroxyethyl)oxocarboxamide [Entry 3] | 50.0
(R)-(2-(4-Chlorophenyl)-2-carbamoyloxyethyl)oxocarboxamide [Entry 9] | 26.2
(S)-(2-(2-Chlorophenyl)-2-carbamoyloxyethyl)oxocarboxamide [Entry 7] | 22.0
(S)-(2-(2-chlorophenyl)-2-hydroxyethyl)oxocarboxamide [Entry 2] | 13.0

Same assay, conditions: dosed orally, Hour 4, elimination of hindlimb tonic extension

Compound | ED50 [mg/kg]
NC(=O)OC[C@H](OC(N)=O)c1ccccc1Cl [Entry 13, (R)-(2-(2-Chlorophenyl)-2-N-carbamoyloxyethyl)oxocarboxamide] | 8.9
CNC(=O)OC[C@H](OC(=O)NC)c1ccccc1Cl [Entry 14] | >20
O=C(Nc1ccccc1)OC[C@H](OC(=O)Nc1ccccc1)c1ccccc1Cl [Entry 16, (R)-N-Phenyl(2-(2-chlorophenyl)-2-N-phenylcarbamoyloxyethyl)-oxocarboxamide] | >20
O=C(NCc1ccccc1)OC[C@H](OC(=O)NCc1ccccc1)c1ccccc1Cl [Entry 17, (R)-N-Benzyl(2-(2-chlorophenyl)-2-N-benzylcarbamoyloxyethyl)-oxocarboxamide] | >20
(S)-(2-(4-Chlorophenyl)-2-carbamoyloxyethyl)oxocarboxamide [Entry 10] | 21.5

The compounds below were run on mice (CF-1 strain) in the same assay as above. Conditions: ip, Hour 1, elimination of hindlimb tonic extension.
Assay type: in vivo

Compound | ED50 (mg/Kg)
CC(C)NC(=O)OC[C@H](OC(=O)NC(C)C)c1ccccc1Cl [Entry 15] | ≈10 (ip) mg/Kg
